Experimental findings from patent publication US9988429B2, “Glucagon analogues” (Zealand Pharma A/S, priority 2013, dated 2018) are described below.

Starred links: 1 amine or outer side, 2 acyl side, 3 side chain; linkers in the order of their positions; H or OH if unused. Non-standard residues stand in square brackets, D forms with d. Residues, ends and D or L forms follow the SMILES beside them. Groups on a side chain read outwards from the residue. *: point of attachment. γGlu = O=C(O)[C@H](CCC(=O)[*:2])N[*:1]; Palmitoyl = CCCCCCCCCCCCCCCC(=O)*; Ac3c = NC1(C(=O)O)CC1

For the first experiment, the target named is T1, human glucagon-like peptide 1 receptor (GLP-1R) (Homo sapiens, UniProt P43220).
T1 construct: expressed in transfected cells
T1 sequence (P43220 24-463): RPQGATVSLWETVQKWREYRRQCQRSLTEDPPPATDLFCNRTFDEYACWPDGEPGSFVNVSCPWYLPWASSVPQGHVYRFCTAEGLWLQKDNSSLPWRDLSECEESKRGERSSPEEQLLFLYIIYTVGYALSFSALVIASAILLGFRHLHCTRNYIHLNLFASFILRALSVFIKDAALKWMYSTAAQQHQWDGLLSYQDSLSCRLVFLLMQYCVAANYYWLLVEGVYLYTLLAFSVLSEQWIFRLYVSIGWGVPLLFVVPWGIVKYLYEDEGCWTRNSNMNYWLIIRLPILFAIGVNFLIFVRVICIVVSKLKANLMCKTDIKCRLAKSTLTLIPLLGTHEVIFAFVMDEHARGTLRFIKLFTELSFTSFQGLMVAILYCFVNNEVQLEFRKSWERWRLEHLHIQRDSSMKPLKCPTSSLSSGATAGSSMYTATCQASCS
The experiment is described as follows: GLP-1 receptor efficacy assay (cAMP AlphaScreen, CHO cells). The experiment is classed as cell-based. Conditions: EC50 [GLP-1R] / EC50 [Glucagon-R], human receptors in CHO-K1. The protocol:
The mammalian expression vectors encoding the Glucagon-R or the GLP-1-R were transfected into Chinese hamster ovary (CHO) cells by the Attractene method. Stably expressing clones were obtained by Zeocin selection (250 μg/mL) upon limited dilution of cells resistant to the selection pressure. […] One Glucagon-R expressing clone and one GLP-1-R expressing clone were chosen for compound profiling.
CHO cells expressing the human Glucagon-R, or human GLP-1-R were seeded 24 hours prior to the assay at 30,000 cells per well in 96-well microtiter plates in culture in 100 μl growth medium. On the day of analysis, growth medium was removed and the cells were washed once with 200 μl of assay buffer (Krebs-Ringer-buffer—KRBH). The buffer was removed and the cells were incubated for 15 min at room temperature in 10 μl KRBH (KRBH+10 mM HEPES, 5 mM NaHCO3, 0.1% (V/V) BSA) with 0.1 mM IBMX in deionized water containing increasing concentrations of test peptides. The reaction was stopped by the addition of lysis buffer (0.1% w/v BSA, 5 mM HEPES, 0.3% v/v Tween-20). After cell lysis for 10 min at room temperature, lysates were transferred to 384-well plates and 10 μl of acceptor/donorbead mixture as contained in the AlphaScreen™ cAMP Functional Assay Kit was added. After one hour of incubation at room temperature in the dark, the cAMP content was determined applying the AlphaScreen™ cAMP Functional Assay Kit from Perkin-Elmer according to manufacturer instructions. […] The GLP-1/glucagon ratio is calculated as defined earlier.
Consider `CCCCCCCCCCCCCCCC(=O)N[C@@H](CCC(=O)NCCCC[C@H](NC(=O)[C@H](CCC(=O)O)NC(=O)[C@H](CC(=O)O)NC(=O)[C@H](CC(C)C)NC(=O)[C@H](Cc1ccc(O)cc1)NC(=O)[C@H](CCCCN)NC(=O)[C@H](CO)NC(=O)[C@H](Cc1ccc(O)cc1)NC(=O)[C@H](CC(=O)O)NC(=O)[C@H](CO)NC(=O)[C@@H](NC(=O)[C@H](Cc1ccccc1)NC(=O)[C@@H](NC(=O)CNC(=O)[C@H](CCC(N)=O)NC(=O)[C@@H]1CCCN1C(=O)[C@@H](N)Cc1c[nH]cn1)[C@@H](C)O)[C@@H](C)O)C(=O)N[C@@H](C)C(=O)N[C@@H](C)C(=O)N[C@@H](CCCCN)C(=O)N[C@@H](CC(=O)O)C(=O)N[C@@H](Cc1ccccc1)C(=O)N[C@H](C(=O)N[C@@H](CCC(=O)O)C(=O)N[C@@H](Cc1c[nH]c2ccccc12)C(=O)N[C@@H](CC(C)C)C(=O)N[C@@H](CCC(=O)O)C(=O)N[C@@H](CO)C(=O)N[C@@H](C)C(N)=O)[C@@H](C)CC)C(=O)O` [Compound 13], for which the “Ratio GLP-1/Glucagon” value came out at 0.07.
`CCCCCCCCCCCCCCCC(=O)N[C@@H](CCC(=O)NCCCC[C@H](NC(=O)[C@H](CCC(=O)O)NC(=O)[C@H](CC(=O)O)NC(=O)[C@H](CC(C)C)NC(=O)[C@H](Cc1ccc(O)cc1)NC(=O)[C@H](CCCCN)NC(=O)[C@H](CO)NC(=O)[C@H](Cc1ccc(O)cc1)NC(=O)[C@H](CC(=O)O)NC(=O)[C@H](CO)NC(=O)[C@@H](NC(=O)[C@H](Cc1ccccc1)NC(=O)[C@@H](NC(=O)CNC(=O)[C@H](CCC(N)=O)NC(=O)C1(NC(=O)[C@@H](N)Cc2c[nH]cn2)CCC1)[C@@H](C)O)[C@@H](C)O)C(=O)N[C@@H](C)C(=O)N[C@@H](C)C(=O)N[C@@H](CCCCN)C(=O)N[C@@H](CC(=O)O)C(=O)N[C@@H](Cc1ccccc1)C(=O)N[C@H](C(=O)N[C@@H](CCC(=O)O)C(=O)N[C@@H](Cc1c[nH]c2ccccc12)C(=O)N[C@@H](CC(C)C)C(=O)N[C@@H](CCC(=O)O)C(=O)N[C@@H](CO)C(=O)N[C@@H](C)C(N)=O)[C@@H](C)CC)C(=O)O` [Compound 14]: the “Ratio GLP-1/Glucagon” value is listed as 0.04.
For `CCCCCCCCCCCCCCCC(=O)N[C@@H](CCC(=O)NCCCC[C@H](NC(=O)[C@H](CO)NC(=O)[C@H](CC(=O)O)NC(=O)[C@H](CC(C)C)NC(=O)[C@H](Cc1ccc(O)cc1)NC(=O)[C@H](CCCCN)NC(=O)[C@H](CO)NC(=O)[C@H](Cc1ccc(O)cc1)NC(=O)[C@H](CC(=O)O)NC(=O)[C@H](CO)NC(=O)[C@@H](NC(=O)[C@H](Cc1ccccc1)NC(=O)[C@@H](NC(=O)CNC(=O)[C@H](CCC(N)=O)NC(=O)[C@H](C)NC(=O)[C@@H](N)Cc1c[nH]cn1)[C@@H](C)O)[C@@H](C)O)C(=O)N[C@@H](C)C(=O)N[C@@H](C)C(=O)N[C@@H](Cc1c[nH]cn1)C(=O)N[C@@H](CC(=O)O)C(=O)N[C@@H](Cc1ccccc1)C(=O)N[C@H](C(=O)N[C@@H](CCC(=O)O)C(=O)N[C@@H](Cc1c[nH]c2ccccc12)C(=O)N[C@@H](CC(C)C)C(=O)N[C@@H](CC(C)C)C(=O)N[C@@H](CO)C(=O)N[C@@H](C)C(N)=O)C(C)C)C(=O)O` [Compound 1], the “Ratio GLP-1/Glucagon” value is given as 2.26.
On the same count and under the same terms, for `CCCCCCCCCCCCCCCC(=O)N[C@@H](CCC(=O)NCCCC[C@H](NC(=O)[C@H](CO)NC(=O)[C@H](CC(=O)O)NC(=O)[C@H](CC(C)C)NC(=O)[C@H](Cc1ccc(O)cc1)NC(=O)[C@H](CCCCN)NC(=O)[C@H](CO)NC(=O)[C@H](Cc1ccc(O)cc1)NC(=O)[C@H](CC(=O)O)NC(=O)[C@H](CO)NC(=O)[C@@H](NC(=O)[C@H](Cc1ccccc1)NC(=O)[C@@H](NC(=O)CNC(=O)[C@H](CCC(N)=O)NC(=O)[C@H](CO)N(C)C(=O)[C@@H](N)Cc1c[nH]cn1)[C@@H](C)O)[C@@H](C)O)C(=O)N[C@@H](C)C(=O)N[C@@H](C)C(=O)N[C@@H](Cc1c[nH]cn1)C(=O)N[C@@H](CC(=O)O)C(=O)N[C@@H](Cc1ccccc1)C(=O)N[C@H](C(=O)N[C@@H](CCC(=O)O)C(=O)N[C@@H](Cc1c[nH]c2ccccc12)C(=O)N[C@@H](CC(C)C)C(=O)N[C@@H](CC(C)C)C(=O)N[C@@H](CO)C(=O)N[C@@H](C)C(N)=O)C(C)C)C(=O)O` [Compound 2] the value was 3.83; for `CCCCCCCCCCCCCCCC(=O)N[C@@H](CCC(=O)NCCCC[C@H](NC(=O)[C@H](CO)NC(=O)[C@H](CC(=O)O)NC(=O)[C@H](CC(C)C)NC(=O)[C@H](Cc1ccc(O)cc1)NC(=O)[C@H](CCCCN)NC(=O)[C@H](CO)NC(=O)[C@H](Cc1ccc(O)cc1)NC(=O)[C@H](CC(=O)O)NC(=O)[C@H](CO)NC(=O)[C@@H](NC(=O)[C@H](Cc1ccccc1)NC(=O)[C@@H](NC(=O)CNC(=O)[C@H](Cc1c[nH]cn1)NC(=O)C1(NC(=O)[C@@H](N)Cc2c[nH]cn2)CC1)[C@@H](C)O)[C@@H](C)O)C(=O)N[C@@H](C)C(=O)N[C@@H](C)C(=O)N[C@@H](Cc1c[nH]cn1)C(=O)N[C@@H](CC(=O)O)C(=O)N[C@@H](Cc1ccccc1)C(=O)N[C@H](C(=O)N[C@@H](CCC(=O)O)C(=O)N[C@@H](Cc1c[nH]c2ccccc12)C(=O)N[C@@H](CC(C)C)C(=O)N[C@@H](CC(C)C)C(=O)N[C@@H](CO)C(=O)N[C@@H](C)C(N)=O)C(C)C)C(=O)O` [Compound 8] (H-H[Ac3c]HGTFTSDYSKYLDSK([γGlu-Palmitoyl])AAHDFVEWLLSA-NH2), 0.13.
With `CCCCCCCCCCCCCCCC(=O)N[C@@H](CCC(=O)NCCCC[C@H](NC(=O)[C@H](CO)NC(=O)[C@H](CC(=O)O)NC(=O)[C@H](CC(C)C)NC(=O)[C@H](Cc1ccc(O)cc1)NC(=O)[C@H](CCCCN)NC(=O)[C@H](CO)NC(=O)[C@H](Cc1ccc(O)cc1)NC(=O)[C@H](CC(=O)O)NC(=O)[C@H](CO)NC(=O)[C@@H](NC(=O)[C@H](Cc1ccccc1)NC(=O)[C@@H](NC(=O)CNC(=O)[C@H](Cc1c[nH]cn1)NC(=O)[C@@H](C)NC(=O)[C@@H](N)Cc1c[nH]cn1)[C@@H](C)O)[C@@H](C)O)C(=O)N[C@@H](C)C(=O)N[C@@H](C)C(=O)N[C@@H](Cc1c[nH]cn1)C(=O)N[C@@H](CC(=O)O)C(=O)N[C@@H](Cc1ccccc1)C(=O)N[C@H](C(=O)N[C@@H](CCC(=O)O)C(=O)N[C@@H](Cc1c[nH]c2ccccc12)C(=O)N[C@@H](CC(C)C)C(=O)N[C@@H](CC(C)C)C(=O)N[C@@H](CO)C(=O)N[C@@H](C)C(N)=O)C(C)C)C(=O)O` [Compound 7] (H-H[dA]HGTFTSDYSKYLDSK([γGlu-Palmitoyl])AAHDFVEWLLSA-NH2), the “Ratio GLP-1/Glucagon” value was 0.58.

The same experiment, now with this note: cAMP formation, CHO cells expressing human GLP-1-R; read-out: EC50 hGLP-1R CHO-K1.
Turning to `CCCCCCCCCCCCCCCC(=O)N[C@@H](CCC(=O)NCCCC[C@H](NC(=O)[C@H](CCC(=O)O)NC(=O)[C@H](CC(=O)O)NC(=O)[C@H](CC(C)C)NC(=O)[C@H](Cc1ccc(O)cc1)NC(=O)[C@H](CCCCN)NC(=O)[C@H](CO)NC(=O)[C@H](Cc1ccc(O)cc1)NC(=O)[C@H](CC(=O)O)NC(=O)[C@H](CO)NC(=O)[C@@H](NC(=O)[C@H](Cc1ccccc1)NC(=O)[C@@H](NC(=O)CNC(=O)[C@H](CCC(N)=O)NC(=O)[C@@H](C)NC(=O)[C@@H](N)Cc1c[nH]cn1)[C@@H](C)O)[C@@H](C)O)C(=O)N[C@@H](C)C(=O)N[C@@H](C)C(=O)N[C@@H](CCCCN)C(=O)N[C@@H](CC(=O)O)C(=O)N[C@@H](Cc1ccccc1)C(=O)N[C@H](C(=O)N[C@@H](CCC(=O)O)C(=O)N[C@@H](Cc1c[nH]c2ccccc12)C(=O)N[C@@H](CC(C)C)C(=O)N[C@@H](CCC(=O)O)C(=O)N[C@@H](CO)C(=O)N[C@@H](C)C(N)=O)[C@@H](C)CC)C(=O)O` [Compound 12], the EC50 worked out at 140 pM.
As to `CCCCCCCCCCCCCCCC(=O)N[C@@H](CCC(=O)NCCCC[C@H](NC(=O)[C@H](CCC(=O)O)NC(=O)[C@H](CC(=O)O)NC(=O)[C@H](CC(C)C)NC(=O)[C@H](Cc1ccc(O)cc1)NC(=O)[C@H](CCCCN)NC(=O)[C@H](CO)NC(=O)[C@H](Cc1ccc(O)cc1)NC(=O)[C@H](CC(=O)O)NC(=O)[C@H](CO)NC(=O)[C@@H](NC(=O)[C@H](Cc1ccccc1)NC(=O)[C@@H](NC(=O)CNC(=O)[C@H](CCC(N)=O)NC(=O)[C@H](C)NC(=O)[C@@H](N)Cc1c[nH]cn1)[C@@H](C)O)[C@@H](C)O)C(=O)N[C@@H](C)C(=O)N[C@@H](C)C(=O)N[C@@H](CCCCN)C(=O)N[C@@H](CC(=O)O)C(=O)N[C@@H](Cc1ccccc1)C(=O)N[C@H](C(=O)N[C@@H](CCC(=O)O)C(=O)N[C@@H](Cc1c[nH]c2ccccc12)C(=O)N[C@@H](CC(C)C)C(=O)N[C@@H](CCC(=O)O)C(=O)N[C@@H](CO)C(=O)N[C@@H](C)C(N)=O)[C@@H](C)CC)C(=O)O` [Compound 11], the EC50 turned out to be 140 pM.
